Tested on: Bacteria
Test: Beta-Lactamase Eurofins-Panlabs enzyme assay
Set-up: substrate with concentration
Conditions: Compound concentration 10.0 uM

O=C(NCc1ncc(C(F)(F)F)cc1Cl)c1ccc2c(c1)C1(CCS(=O)(=O)CC1)[C@H](C1CC1)N2S(=O)(=O)c1ccc(F)cc1 [BAY-784] gave an inhibition of -2%.

Reference: ChEMBL document CHEMBL4507266, “Data for DCP probe BAY-784” (2021)
